Tested on: patients with primary open angle glaucoma or ocular hypertension resistant to treatment with latanoprost ophthalmic solution
Assay: Clinical test: 0.002% (w/v) omidenepag isopropyl eye drop A in patients resistant to latanoprost ophthalmic solution
Assay type: in vivo, humans
Description: Examination was conducted on the efficacy of omidenepag isopropyl on patients with inadequate efficacies of other glaucoma or ocular hypertension therapeutic agents.
Omidenepag isopropyl, polyoxyl 35 castor oil, glycerin, citric acid, sodium citrate, sodium edetate, and benzalkonium chloride were dissolved into purified water to adjust the pH. Thereafter, purified water was added to adjust the total volume, thereby preparing a 0.002% (w/v) omidenepag isopropyl eye drop A.
Patients with primary open angle glaucoma or ocular hypertension were subjected to a washout period of 1 to 4 weeks, and then received a binocular instillation of 0.005% latanoprost ophthalmic solution in an amount of 1 drop once a day for 8 weeks as an induction phase (week −8 to baseline). The patients with primary open angle glaucoma (21 humans) or ocular hypertension (5 humans) resistant to treatment with latanoprost ophthalmic solution, whose rate of decrease in intraocular pressure from the start of instillation was 15% or less at the end of the induction phase, entered the treatment phase (baseline to week 4), and received a binocular instillation of the above-described 0.002% (w/v) omidenepag isopropyl eye drop A in an amount of 1 drop (about 0.03 mL) once a day for 4 weeks every day.

Structure (SMILES): CC(C)OC(=O)CNc1cccc(CN(Cc2ccc(-n3cccn3)cc2)S(=O)(=O)c2cccnc2)n1 [omidenepag isopropyl, isopropyl (6-{[4-(pyrazol-1-yl)benzyl](pyridin-3-ylsulfonyl)aminomethyl}pyridin-2-ylamino)acetate]
- intraocular pressure lowering compared with latanoprost instillation: lowers intraocular pressure to a greater extent than latanoprost instillation

Source: US12290511B2, “Pharmaceutical preparation containing pyridyl aminoacetic acid compound” (Santen Pharmaceutical Co., Ltd., priority 2017, dated 2025)
